According to patent US20260356840A1, “[1,2,4]TRIAZOLO[1,5-A]PYRIMIDINONE WRN INHIBITORS” (Nimbus Wadjet, Inc., priority 2023, published 2026):

target: T1, human Werner helicase (Uniprot Q14191, amino acids 517-1235 with L1074F point mutation), WRN-BV08 (Homo sapiens, UniProt Q14191, L1074F); assay: WRN (BV08) ADP-Glo Assay; assay type: biochemical
T1 construct: Uniprot Q14191, amino acids 517-1235 with L1074F point mutation; TEV cleavable 8xHis tag (C, cleaved yes); made in house; host or cells: Sf9 insect cells (baculovirus, pFastBac)
T1 sequence (Q14191 517-1235 L1074F): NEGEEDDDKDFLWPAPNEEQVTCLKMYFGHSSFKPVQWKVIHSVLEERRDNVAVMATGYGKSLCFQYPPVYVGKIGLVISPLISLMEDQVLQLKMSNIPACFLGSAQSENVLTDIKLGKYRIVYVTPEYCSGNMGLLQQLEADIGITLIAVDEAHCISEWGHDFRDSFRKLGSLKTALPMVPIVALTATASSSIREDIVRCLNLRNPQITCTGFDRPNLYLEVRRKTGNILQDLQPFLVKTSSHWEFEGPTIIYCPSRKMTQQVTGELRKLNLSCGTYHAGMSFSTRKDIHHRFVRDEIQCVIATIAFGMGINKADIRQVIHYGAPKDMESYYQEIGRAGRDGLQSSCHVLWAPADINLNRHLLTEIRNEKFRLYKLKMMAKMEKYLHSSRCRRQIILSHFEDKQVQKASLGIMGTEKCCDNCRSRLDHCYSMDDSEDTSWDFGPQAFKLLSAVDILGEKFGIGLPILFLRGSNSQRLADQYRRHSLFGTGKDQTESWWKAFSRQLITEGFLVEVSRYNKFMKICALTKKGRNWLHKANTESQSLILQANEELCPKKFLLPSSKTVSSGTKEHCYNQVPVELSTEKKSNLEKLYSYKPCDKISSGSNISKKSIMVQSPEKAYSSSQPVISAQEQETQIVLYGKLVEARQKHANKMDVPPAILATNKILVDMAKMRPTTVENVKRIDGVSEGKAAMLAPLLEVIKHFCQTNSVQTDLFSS

SMILES | IC50 [nM]
CCc1c(N2CCN(C(=O)c3nnn(C)n3)CC2)c(=O)n2nc(-c3ccnc(OC)c3)nc2n1CC(=O)Nc1ccc(C(F)(F)F)cc1Cl [Compound I-74, N-[2-chloro-4-(trifluoromethyl)phenyl]-2-[5-ethyl-2-(2-methoxypyridin-4-yl)-6-[4-(2-methyl-2H-1,2,3,4-tetrazole-5-carbonyl)piperazin-1-yl]-7-oxo-4H,7H-[1,2,4]triazolo[1,5-a]pyrimidin-4-yl]acetamide] | 5 to 50
CCc1c(N2CCN(C(=O)c3c(O)cccc3F)CC2)c(=O)n2nc(C3=CCOCC3)nc2n1CC(=O)Nc1ccc(C(F)(F)F)cc1Cl [Compound I-1, N-[2-chloro-4-(trifluoromethyl)phenyl]-2-[2-(3,6-dihydro-2H-pyran-4-yl)-5-ethyl-6-[4-(2-fluoro-6-hydroxybenzoyl)piperazin-1-yl]-7-oxo-4H,7H-[1,2,4]triazolo[1,5-a]pyrimidin-4-yl]acetamide] | 5 to 50
CCc1c(N2CCN(C(=O)c3cnn(C)c3)CC2)c(=O)n2nc(-c3cnn(CC(C)(C)O)c3)nc2n1CC(=O)Nc1ccc(C(F)(F)F)cc1Cl [Compound I-56, N-[2-chloro-4-(trifluoromethyl)phenyl]-2-{5-ethyl-2-[1-(2-hydroxy-2-methylpropyl)-1H-pyrazol-4-yl]-6-[4-(1-methyl-1H-pyrazole-4-carbonyl)piperazin-1-yl]-7-oxo-4H,7H-[1,2,4]triazolo[1,5-a]pyrimidin-4-yl}acetamide] | 5 to 50
CCc1c(N2CCN(C(=O)c3coc(C)n3)CC2)c(=O)n2nc(-c3ccnc(OC)c3)nc2n1CC(=O)Nc1ccc(C(F)(F)F)cc1Cl [Compound I-75, N-[2-chloro-4-(trifluoromethyl)phenyl]-2-[5-ethyl-2-(2-methoxypyridin-4-yl)-6-[4-(2-methyl-1,3-oxazole-4-carbonyl)piperazin-1-yl]-7-oxo-4H,7H-[1,2,4]triazolo[1,5-a]pyrimidin-4-yl]acetamide] | 5 to 50
CCc1c(N2CCN(C(=O)C(F)F)CC2)c(=O)n2nc(-c3ccnc(OC)c3)nc2n1CC(=O)Nc1ccc(C(F)(F)F)cc1Cl [Compound I-53, N-[2-chloro-4-(trifluoromethyl)phenyl]-2-{6-[4-(2,2-difluoroacetyl)piperazin-1-yl]-5-ethyl-2-(2-methoxypyridin-4-yl)-7-oxo-4H,7H-[1,2,4]triazolo[1,5-a]pyrimidin-4-yl}acetamide] | 5 to 50
CCc1c(N2CCN(C(=O)c3cccc4cccnc34)CC2)c(=O)n2nc(C3=CCOCC3)nc2n1CC(=O)Nc1ccc(C(F)(F)F)cc1Cl [Compound I-19, N-[2-chloro-4-(trifluoromethyl)phenyl]-2-[2-(3,6-dihydro-2H-pyran-4-yl)-5-ethyl-7-oxo-6-[4-(quinoline-8-carbonyl)piperazin-1-yl]-4H,7H-[1,2,4]triazolo[1,5-a]pyrimidin-4-yl]acetamide] | 5 to 50
CCc1c(N2CCN(C(=O)c3cnn(C)c3)CC2)c(=O)n2nc(-c3ccnc(OC4CC4)c3)nc2n1CC(=O)Nc1ccc(C(F)(F)F)cc1Cl [Compound I-52, N-[2-chloro-4-(trifluoromethyl)phenyl]-2-[2-(2-cyclopropoxypyridin-4-yl)-5-ethyl-6-[4-(1-methyl-1H-pyrazole-4-carbonyl)piperazin-1-yl]-7-oxo-4H,7H-[1,2,4]triazolo[1,5-a]pyrimidin-4-yl]acetamide] | 5 to 50
CCc1c(N2CCN(C(=O)CC(C)(C)O)CC2)c(=O)n2nc(C3=CCOCC3)nc2n1CC(=O)Nc1ccc(C(F)(F)F)cc1Cl [Compound I-40, N-[2-chloro-4-(trifluoromethyl)phenyl]-2-[2-(3,6-dihydro-2H-pyran-4-yl)-5-ethyl-6-[4-(3-hydroxy-3-methylbutanoyl)piperazin-1-yl]-7-oxo-4H,7H-[1,2,4]triazolo[1,5-a]pyrimidin-4-yl]acetamide] | 50 to 100
CCc1c(N2CCN(C(=O)c3nnc(C)s3)CC2)c(=O)n2nc(C3=CCOCC3)nc2n1CC(=O)Nc1ccc(C(F)(F)F)cc1Cl [Compound I-41, N-[2-chloro-4-(trifluoromethyl)phenyl]-2-[2-(3,6-dihydro-2H-pyran-4-yl)-5-ethyl-6-[4-(5-methyl-1,3,4-thiadiazole-2-carbonyl)piperazin-1-yl]-7-oxo-4H,7H-[1,2,4]triazolo[1,5-a]pyrimidin-4-yl]acetamide] | 5 to 50
CCc1c(N2CC3CN(C(=O)c4ncnc(C)c4O)CC3C2)c(=O)n2nc(C3=CCOCC3)nc2n1CC(=O)Nc1ccc(C(F)(F)F)cc1Cl (stereo not drawn) [Compound I-8, N-[2-chloro-4-(trifluoromethyl)phenyl]-2-[2-(3,6-dihydro-2H-pyran-4-yl)-5-ethyl-6-[5-(5-hydroxy-6-methylpyrimidine-4-carbonyl)-octahydropyrrolo[3,4-c]pyrrol-2-yl]-7-oxo-4H,7H-[1,2,4]triazolo[1,5-a]pyrimidin-4-yl]acetamide] | 5 to 50
CCc1c(N2CCN(C(=O)C(F)(F)F)CC2)c(=O)n2nc(-c3ccnc(OC)c3)nc2n1CC(=O)Nc1ccc(C(F)(F)F)cc1Cl [Compound I-47, N-[2-chloro-4-(trifluoromethyl)phenyl]-2-[5-ethyl-2-(2-methoxypyridin-4-yl)-7-oxo-6-[4-(2,2,2-trifluoroacetyl)piperazin-1-yl]-4H,7H-[1,2,4]triazolo[1,5-a]pyrimidin-4-yl]acetamide] | 50 to 100
CCc1c(N2CCN(C(=O)c3nnn[nH]3)CC2)c(=O)n2nc(C3=CCOCC3)nc2n1CC(=O)Nc1ccc(C(F)(F)F)cc1Cl [Compound I-17, N-[2-chloro-4-(trifluoromethyl)phenyl]-2-[2-(3,6-dihydro-2H-pyran-4-yl)-5-ethyl-7-oxo-6-[4-(1H-1,2,3,4-tetrazole-5-carbonyl)piperazin-1-yl]-4H,7H-[1,2,4]triazolo[1,5-a]pyrimidin-4-yl]acetamide] | 5 to 50
CCc1c(N2CCN(C(=O)c3ccnc(OC)c3O)CC2)c(=O)n2nc(-c3ccnc(OC)c3)nc2n1CC(=O)Nc1ccc(C(F)(F)F)cc1Cl [Compound I-80, N-[2-chloro-4-(trifluoromethyl)phenyl]-2-{5-ethyl-6-[4-(3-hydroxy-2-methoxypyridine-4-carbonyl)piperazin-1-yl]-2-(2-methoxypyridin-4-yl)-7-oxo-4H,7H-[1,2,4]triazolo[1,5-a]pyrimidin-4-yl}acetamide] | 5 to 50
CCc1c(N2CCN(C(=O)c3ncnn3C)CC2)c(=O)n2nc(-c3ccnc(OC)c3)nc2n1CC(=O)Nc1ccc(C(F)(F)F)cc1Cl [Compound I-79, N-[2-chloro-4-(trifluoromethyl)phenyl]-2-[5-ethyl-2-(2-methoxypyridin-4-yl)-6-[4-(1-methyl-1H-1,2,4-triazole-5-carbonyl)piperazin-1-yl]-7-oxo-4H,7H-[1,2,4]triazolo[1,5-a]pyrimidin-4-yl]acetamide] | 5 to 50
CCc1c(N2CCN(C(=O)C(C)(C)CO)CC2)c(=O)n2nc(C3=CCOCC3)nc2n1CC(=O)Nc1ccc(C(F)(F)F)cc1Cl [Compound I-20, N-[2-chloro-4-(trifluoromethyl)phenyl]-2-[2-(3,6-dihydro-2H-pyran-4-yl)-5-ethyl-6-[4-(3-hydroxy-2,2-dimethylpropanoyl)piperazin-1-yl]-7-oxo-4H,7H-[1,2,4]triazolo[1,5-a]pyrimidin-4-yl]acetamide] | 5 to 50
CCc1c(N2CCN(C(=O)c3cnc(C)s3)CC2)c(=O)n2nc(-c3ccnc(OC)c3)nc2n1CC(=O)Nc1ccc(C(F)(F)F)cc1Cl [Compound I-59, N-[2-chloro-4-(trifluoromethyl)phenyl]-2-[5-ethyl-2-(2-methoxypyridin-4-yl)-6-[4-(2-methyl-1,3-thiazole-5-carbonyl)piperazin-1-yl]-7-oxo-4H,7H-[1,2,4]triazolo[1,5-a]pyrimidin-4-yl]acetamide] | 5 to 50
CCc1c(N2CCN(C(=O)c3cnn(C)c3)CC2)c(=O)n2nc(-c3cc(OC)ccn3)nc2n1CC(=O)Nc1ccc(C(F)(F)F)cc1Cl [Compound I-69, N-[2-chloro-4-(trifluoromethyl)phenyl]-2-[5-ethyl-2-(4-methoxypyridin-2-yl)-6-[4-(1-methyl-1H-pyrazole-4-carbonyl)piperazin-1-yl]-7-oxo-4H,7H-[1,2,4]triazolo[1,5-a]pyrimidin-4-yl]acetamide] | 5 to 50
CCc1c(N2CCN(C(=O)c3ncc4c(c3O)CCO4)CC2)c(=O)n2nc(-c3ccnc(OC)c3)nc2n1CC(=O)Nc1ccc(C(F)(F)F)cc1Cl [Compound I-85, N-[2-chloro-4-(trifluoromethyl)phenyl]-2-[5-ethyl-6-(4-{4-hydroxy-2H,3H-furo[2,3-c]pyridine-5-carbonyl}piperazin-1-yl)-2-(2-methoxypyridin-4-yl)-7-oxo-4H,7H-[1,2,4]triazolo[1,5-a]pyrimidin-4-yl]acetamide] | < 5
CCc1c(N2CCN(C(=O)c3ccnc(C)c3O)CC2)c(=O)n2nc(C3=CCOCC3)nc2n1CC(=O)Nc1ccc(C(F)(F)F)cc1Cl [Compound I-5, N-[2-chloro-4-(trifluoromethyl)phenyl]-2-[2-(3,6-dihydro-2H-pyran-4-yl)-5-ethyl-6-[4-(3-hydroxy-2-methylpyridine-4-carbonyl)piperazin-1-yl]-7-oxo-4H,7H-[1,2,4]triazolo[1,5-a]pyrimidin-4-yl]acetamide] | 5 to 50
CCc1c(N2CCN(C(=O)c3ncnc(C)c3O)CC2)c(=O)n2nc(-c3ccnc(OC)c3F)nc2n1CC(=O)Nc1ccc(C(F)(F)F)cc1Cl [Compound I-45, N-[2-chloro-4-(trifluoromethyl)phenyl]-2-[5-ethyl-2-(3-fluoro-2-methoxypyridin-4-yl)-6-[4-(5-hydroxy-6-methylpyrimidine-4-carbonyl)piperazin-1-yl]-7-oxo-4H,7H-[1,2,4]triazolo[1,5-a]pyrimidin-4-yl]acetamide] | 5 to 50
CCc1c(N2CCN(C(C)=O)CC2)c(=O)n2nc(-c3cnn(CC(C)(C)O)c3)nc2n1CC(=O)Nc1ccc(C(F)(F)F)cc1Cl [Compound I-55, 2-[6-(4-acetylpiperazin-1-yl)-5-ethyl-2-[1-(2-hydroxy-2-methylpropyl)-1H-pyrazol-4-yl]-7-oxo-4H,7H-[1,2,4]triazolo[1,5-a]pyrimidin-4-yl]-N-[2-chloro-4-(trifluoromethyl)phenyl]acetamide] | 5 to 50
